The source of these data is ChEMBL document CHEMBL3507680, “University of Dundee, Gates Library screen for HepG2 cell viability”.

SMILES strings stand for the structures.

This data set in a line: Human HepG2 cell viability assay in 384 well format. It counts as toxicity, cell-based. More on the design: dose 125 nL, time 70.5 hour; concentration not given beside the values. The conditions noted are these: HepG2 cells, read-out: Inhibition.
As for `Cc1ncc2c(c1CNC(=O)C1(C)CCCO1)CCNC2` (centres undefined), the cytotoxicity at 70.5 h is -7.21%.

Turning to `CN(CCN1CCOC1=O)CC(=O)Nc1cc(F)cc(F)c1`, the cytotoxicity at 70.5 h was -19.7%. For `N#CCCn1nc(C(F)(F)F)c2c1CCC2`, the cytotoxicity at 70.5 h is -2.44%. For `O=C(Cc1ccsc1)N1Cc2nc(CN3CCCCC3)oc2C1`, the cytotoxicity at 70.5 h was -4.42%. With `COc1ccccc1CNC(Cc1cccs1)c1nc(C)cs1` (centres undefined), the cytotoxicity at 70.5 h is 3.54%.

Consider `O=C(CC1CCN(c2cccnn2)CC1)Nc1cccnc1`, for which the cytotoxicity at 70.5 h is -6.44%. Under `CCc1n[nH]c(C2CN(Cc3nnc(C4CC4)o3)CCO2)n1` (centres undefined) stands -1.31%; under `Oc1ccc(N(CCc2ccccc2)CCn2cncn2)cc1`, 7.13%; under `Cc1cnn(CCNCC(O)COc2ccc3ccccc3c2)c1` (centres undefined), -0.298%.

With `O=C(O)Cn1nc(C2CC2)c2c(-c3ccco3)ccnc21`, the cytotoxicity at 70.5 h was 30.2%. As to `O=C(NCc1nc[nH]n1)c1cc(COc2cccc(C(F)(F)F)c2)[nH]n1`, the cytotoxicity at 70.5 h amounted to 21.3%.

Consider `Cc1ccccc1CC1(C(=O)O)CCCN(c2ncnc3[nH]ccc23)C1` (centres undefined), for which the cytotoxicity at 70.5 h was -5.97%.

With `COCC1CN(CCc2ccc(OC)c(OC)c2)Cc2c1cnn2C` (centres undefined), the cytotoxicity at 70.5 h was -8.2%. `CCCNC(=O)CCOc1cccc(F)c1`: the cytotoxicity at 70.5 h is -3.12%. As for `CN(C)C(=O)COC[C@@]12CCC[C@@H]1CN(C1CCCC1)C2`, the cytotoxicity at 70.5 h was -1.63%. Under `O=C(COCc1ccccc1Cl)N1CCCC(n2ccnc2)C1` (centres undefined) stands 17.5%; under `Cc1cccc(CN2C[C@H](NS(C)(=O)=O)[C@@H]3OCCC[C@@H]32)n1`, 4.73%.

On to `CN(Cc1cc(C2CC2)[nH]n1)C(=O)c1cnn2ccn(C)c12`, for which the cytotoxicity at 70.5 h was -10.4%.

As for `Cn1c(C2CCCN2C(=O)c2cn(CCN)nn2)nc2ccccc21` (centres undefined), the cytotoxicity at 70.5 h is -15.7%. Under `O=C(c1ccccc1)N1CC2(CCNC2)OCc2ccccc21` (centres undefined) stands -9.98%; under `O=C(COC1CCCC1)N1CCC(C(O)c2ccc(F)cc2)CC1` (centres undefined), -8.09%; under `O=C(COc1ccc(F)cc1)N1CCO[C@H]2[C@@H](OCC3CC3)CC[C@@H]21`, -6.33%. Under `Cc1cccc(N2Cc3nc(=O)[nH]n3C2=O)c1` stands -14.3%; under `CN(CCCc1cc(-c2ccc(F)cc2)n[nH]1)C(=O)CCn1cncn1`, 1.64%. Under `Cc1cccc(-n2ncc(C(=O)N3CCn4c(C)nnc4C3)c2C)c1` stands -10.4%; under `CC(C)c1ccc(NC(=O)Cn2cc(I)cn2)cc1`, -24.1%; under `CC(C)N(CCCNC(=O)C1CCCN(C(N)=O)C1)S(C)(=O)=O` (centres undefined), -5.29%.

As to `CCOc1nnc(CN2CCN(CCOC)C(CC)C2)s1` (centres undefined), the cytotoxicity at 70.5 h turned out to be 12.8%. Under `CNC(=O)CN1CCO[C@H]2CN(C(=O)c3ccncc3F)C[C@H]21` stands -3.77%.

As to `Cc1nc(COc2cccc(C#N)c2)no1`, the cytotoxicity at 70.5 h was 2.53%. Under `O=C1OCCN1CC(=O)N1C[C@H]2CC[C@@H]1CN(C(=O)c1cccnc1)C2` stands -2.17%; under `CCc1nonc1NC(=O)C(C)Oc1ccccc1F` (centres undefined), -10.4%.

Consider `O=C(Nc1cnn(CCN2CCOCC2)c1)c1ccccc1O`, for which the cytotoxicity at 70.5 h came out at 0.705%. Consider `NCC1CCC2(CCN(C(=O)c3ccccn3)CC2)CO1` (centres undefined), for which the cytotoxicity at 70.5 h was 2.02%. Turning to `O=C(NCC(O)CO)Nc1cc(Br)ccc1F` (centres undefined), the cytotoxicity at 70.5 h is -1.48%. Take `COCCN(Cc1cc(O)nc2ccccc12)C(=O)NC(C)C`: the cytotoxicity at 70.5 h was -14.7%. Under `CNC(=O)COc1ccccc1CNCc1c(C)noc1C` stands -3.67%; under `Cc1nccc(NCc2cc3n(n2)CCCN(C(=O)C2CCC2)C3)n1`, 13.7%.

In the case of `COc1ccc(C2CCCCCN2S(N)(=O)=O)cc1` (centres undefined), the cytotoxicity at 70.5 h is 23.5%. Under `O=C(CCN1C[C@@H]2CC[C@H]1C2)N1CCN(c2cccc(Cl)c2)C(=O)C1` stands -0.743%; under `O=C(O)c1cc2n(n1)CCCN(C(=O)CCc1c[nH]c3ccccc13)C2`, -16.4%. Under `CCc1ccccc1NC(=O)CCc1cnn(C)c1` stands -11.3%. Under `Cc1nc(-c2cccs2)ccc1C(=O)N1CCN(CC(C)O)CC1` (centres undefined) stands -2.84%; under `CCn1nc(C)c(CCNC(=O)c2cccc(NCC(=O)O)c2)c1C`, 1.17%.

Take `NC(=O)c1cnc2n1CCN(C(=O)c1ccc(-c3cc[nH]n3)cc1)C2`: the cytotoxicity at 70.5 h is -10.3%.

For `O=C(c1cccc(CNC/C=C/c2ccccc2)c1)N1CCCC1`, the cytotoxicity at 70.5 h worked out at 4.26%. Under `CC(C)(C)c1nc2cc(NC(=O)Cn3ccc(=O)[nH]c3=O)ccc2o1` stands -13.2%; under `CCn1nc2c(cc1=O)CN(CCOc1cccc(C#N)c1)CC2`, -3.93%; under `Cc1cc(C(=O)N(C)Cc2cccs2)nc(N2CCCC2)n1`, -6.81%. Under `Cc1ccc(OCC(C)NS(C)(=O)=O)cc1C` (centres undefined) stands -3.53%; under `c1csc(-c2noc(CC3CCCO3)n2)c1` (centres undefined), 6.86%. Under `Cc1nc(C2CCCN2C(=O)COCCOc2ccccc2)no1` (centres undefined) stands 8.74%. Take `O=C(CCc1cn[nH]c1)N1C[C@@H](CN2CCOCC2)C[C@H](CO)C1`: the cytotoxicity at 70.5 h came to 8.69%. Under `COc1ccccc1-c1ncc(CN2CCCC[C@H](N(C)C)C2)s1` stands 4.63%. On to `Cc1cccc(C(=O)N2CCN(S(C)(=O)=O)[C@@H]3CS(=O)(=O)C[C@@H]32)n1`, for which the cytotoxicity at 70.5 h is -7.33%.

Take `COc1cc(N2C[C@@H](C)[C@](O)(C3CC3)C2)ncn1`: the cytotoxicity at 70.5 h is 5.18%. For `O=C1NCC(C(=O)Nc2ncc(Cc3ccc(F)cc3F)s2)N1` (centres undefined), the cytotoxicity at 70.5 h is -3.7%. Under `c1ccc(Cn2cccn2)c(CNCc2cnc(N3CCCC3)nc2)c1` stands -13.6%. Under `Cc1ncsc1C(=O)N[C@@H](Cc1ccccc1)C(N)=O` stands -1.24%; under `CC(C)CC(=O)N1CC(=O)c2sc(NCCc3ccccc3)nc2C1`, 0.452%.

On to `CC(=O)c1cccc(NC(=O)NCCCc2nc(C(C)C)no2)c1`, for which the cytotoxicity at 70.5 h is -1.88%. For `O=C(N1CCCO1)[C@@]12CCO[C@@H]1CCN(Cc1ccccc1)C2`, the cytotoxicity at 70.5 h is -5%. Turning to `O=C(O)c1cc(NS(=O)(=O)c2cccc(Cl)c2F)ccc1Cl`, the cytotoxicity at 70.5 h is -5.66%. On to `O=C(NCc1nncn1C1CC1)c1ccccc1Oc1cccnc1`, for which the cytotoxicity at 70.5 h is -7.51%. `CCS(=O)(=O)N1CCC(CSc2ccccc2)C1` (centres undefined): the cytotoxicity at 70.5 h was -11.1%. Under `CNC(=O)CSc1cnn(CC(=O)Nc2cccc(Cl)c2C)c(=O)c1Cl` stands -16.3%.

For the compound `COc1nccnc1N1CCN(Cc2ccc(F)cc2)C(=O)C1`, the cytotoxicity at 70.5 h amounted to 24.6%. Under `O=S(=O)(NCCNc1cc(-n2cccc2)ncn1)c1cccs1` stands -2.52%. Under `CC(C)CN1C[C@@H]2CN(S(=O)(=O)c3cccs3)C[C@@H]2C1=O` stands -10.3%; under `Cc1c(C)n2c(SCC(=O)N3CCCCC3)nnc2[nH]c1=O`, -8.89%. Under `O=C(c1sccc1Br)N1CCOCC1` stands -15.9%; under `Cc1sc(NC(=O)CN(C)S(C)(=O)=O)c(C#N)c1C`, 10%. In the case of `COCCC1(CNC(=O)NCC2CCCN(C)C2)CCCC1` (centres undefined), the cytotoxicity at 70.5 h is -1.2%. Under `Cc1nccn1CC1CCCN(Cc2ccc(-c3cccnc3)cc2)C1` (centres undefined) stands -9.2%. Under `CCc1nc(NCCCOC)c2c(n1)c(C)nn2C` stands -13.4%; under `Cc1cc(C)n(CC(C)NC(=O)NCc2c(C)cc(C)[nH]c2=O)n1` (centres undefined), 14.3%; under `CC(C)n1nnnc1-c1ccc(NC(=O)CC(F)(F)F)cc1F`, -1.35%.

Regarding `CCc1nc(CS(=O)(=O)Cc2noc(C3CC3)n2)cs1`, the cytotoxicity at 70.5 h is -1.78%. Under `COC[C@]1(O)CCN(C2CCN(c3ccc(F)c(F)c3)CC2)CC1(C)C` stands 22.6%; under `CC(=O)N1CC=C(n2c(=O)[nH]c3ccccc32)CC1`, -5.58%; under `CCc1ncnc2c1CCN(C(=O)N1CCCC1)CC2`, 20.9%. Under `Cc1[nH]c(-c2ccccc2)nc1C(=O)N1CCc2[nH]cnc2C1C(=O)O` (centres undefined) stands -8.84%. Under `CCOc1cc(C)nc(N2CCN(C(=O)c3ccncc3)CC2)n1` stands 5.92%; under `Cn1cc(C2CCCN2CCC(=O)N2CCc3sccc3C2)cn1` (centres undefined), -4.52%. For `NC(=O)C1CCN(Cc2csc(-c3ncccn3)n2)CC1`, the cytotoxicity at 70.5 h came out at 18.7%. Under `Cn1cccc(NC(=O)NCCOCc2ccccc2)c1=O` stands -13.2%. Regarding `CNC(=O)CN1CCOCC2(CCCN(CCc3ccccc3)C2)C1` (centres undefined), the cytotoxicity at 70.5 h was -10.9%. Under `Nc1cc(CCCNC(=O)NC2CCCC2)nn1-c1ccccc1` stands -102%. Under `CCCN1CCC(NC(=O)c2csc(C)c2-c2ccccc2)CC1` stands -9.07%; under `O=C(N1CCOCC1)N1C[C@@H]2OCCN(C(=O)c3ccco3)[C@@H]2C1`, -1.55%; under `COc1cccnc1NC(=O)COC1CCCC1`, 24.8%. Under `CCCc1cc(C(=O)NCCn2nc3ccccn3c2=O)[nH]n1` stands -9.65%. With `CCN(CC)C(=O)CN(C)C1CCc2ccccc21` (centres undefined), the cytotoxicity at 70.5 h is -3.62%. Under `O=C1CCCC2=C1C(c1cccc(F)c1F)Nc1nonc1N2` (centres undefined) stands 1.2%; under `CCn1ncc(C(=O)N2CCCN(CCCc3ccccc3)CC2)c1C`, -2.97%. Under `COCc1c(C(=O)NC2CCCC2)nnn1-c1ccc(C)cc1` stands 22.4%.

Take `Cc1cc(=O)n2nc(Oc3ccc(Cl)c(C)c3)sc2n1`: the cytotoxicity at 70.5 h is -6.83%.

On to `CN1CCN(CC(NCc2ccc(F)c(F)c2)c2ccccc2)CC1` (centres undefined), for which the cytotoxicity at 70.5 h turned out to be 5.13%. Under `CCOCC1c2c(cnn2CC2CC2)CCN1C(=O)c1ccncn1` (centres undefined) stands 20.9%.
